Measurements reported in PMC7406636, “In vivo and in silico characterization of apocynin in reducing organ oxidative stress: A pharmacokinetic and pharmacodynamic study” (Pharmacology Research & Perspectives, 2020).
Where two headings read alike, the source gives them in different places.

Assay: Time-dependent distribution of apocynin in plasma, urine and tissues after iv bolus injection (HPLC-MS/MS)
Type: in vivo, mouse
Procedure: All studies were performed in accordance with the protocols approved by the Home Office under the Animals (Scientific Procedures) Act 1986, UK. For the PKPD study, male CD1 mice (Charles River Ltd) at 12 weeks of age with a body weight range between 25 and 30 g were used for the study. Mice were fasted 12 hours before bolus iv injection of apocynin at 5 mg/kg body weight (dosing volume 5 mL/kg) via a lateral tail vein. Control mice were injected with vehicle (solvent of apocynin) at each time points. Four mice/per time points were sacrificed at 0, 1, 2.5, 5, 15, 30, 60 minutes and then at 3, 6, 12, and 24 hours after iv injection of apocynin. Blood samples were collected and centrifuged at 2000 g, 4°C for 10 minutes for plasma collection. Urine samples were collected from bladders. Tissues were harvested for further experiments.
The detection of apocynin in tissue sample was performed as described previously with some modifications. ^17 In brief, apocynin was detected using an Accela HPLC coupled to a linear ion‐trap tandem mass spectrometry (LTQ‐Orbitrap XL; Thermo‐Fisher Scientific) (HPLC‐MS/MS) in the negative ion mode. Phenacetin (500 ng/mL) was used as an internal standard in every vial. A reversed‐phase 50 × 2.1 mm ID, […], 175 Å pore C18 Hypersil Gold column (Thermo Scientific) was used with injection volume set at 5 µL for the separation of apocynin and phenacetin. Calibration curve used for PK analysis was constructed by spiking apocynin in mouse plasma using eight calibrators ranging from 1 to 10000 ng/mL with great reproducibility and R ^2 ≥ 0.996 for subsequent 5 separate experiments on different days. […] Limit of detection for apocynin was set up at signal to noise ratio ≥ 3, ^18 which is 1 ng/mL in our system. The limitation of quantification was set up at signal to noise ratio ≥ 10, which is 10 ng/mL in our system. Orbitrap component was used for the full scan spectra of apocynin and diapocynin.

[1] = CD1 mice, iv bolus 5 mg/kg, 5 minutes, per tissue weight

## COc1cc(C(C)=O)ccc1O [Apocynin, 4‐hydroxy‐3‐methoxyacetophenone]
CD1 mice, iv bolus 5 mg/kg
  time apocynin remained detectable in urine: up to 12 hours
CD1 mice, iv bolus 5 mg/kg, 1 minute after injection
  plasma apocynin concentration (peak): 5494 ± 400 ng/mL
CD1 mice, iv bolus 5 mg/kg, 1 minute, per tissue weight
  brain apocynin concentration (peak): 4603 ± 208 ng/g
[1]
  heart apocynin peak concentration: 3161 ± 309 ng/g
  liver apocynin peak concentration: 2853 ± 35 ng/g
CD1 mice, iv bolus 5 mg/kg, at 30 minutes
  urine apocynin peak concentration: 20492 ng/mL
CD1 mice, iv bolus 5 mg/kg, until 5 minutes after injection
  apocynin detection in urine: undetectable
After iv injection
  half-life in the brain compared with plasma: longer
  renal clearance: high
male, mouse, brain, CD1 mice, iv bolus 5 mg/kg, read-out: brain apocynin concentration
  concentration at 30 min: 103 ± 4 ng/g
male, mouse, plasma, CD1 mice, iv bolus 5 mg/kg, 5 minutes
  concentration at 5 min: 3240 ± 1560 ng/mL
male, mouse, plasma, CD1 mice, iv bolus 5 mg/kg, 15 minutes
  concentration at 15 min: ~50 ng/mL
male, mouse, plasma, CD1 mice, iv bolus 5 mg/kg, read-out: plasma apocynin concentration
  concentration at 30 min: ~10 ng/mL
male, mouse, urine, CD1 mice, iv bolus 5 mg/kg, 3 hours
  concentration at 3 h: 230 ± 31 ng/mL
